Experiments:
[1] = tested on: BCRP; conditions: reported in the literature; cited from earlier work
[2] = molecular target: full-length FLAG-tagged B-Raf(V600E) (Homo sapiens (Human), UniProt P15056, V600E); assay: BRAF V600E enzyme assay (TR-FRET competitive displacement of fluorescent tracer); assay type: binding; conditions: averaged IC50; 60 min at ambient temperature; 11-point dosing, top dose 10 μM
From the text: (§1) A competitive displacement assay was configured for B-Raf that monitors the amount of a fluorescently-tagged “tracer” bound to B-Raf via TR-FRET from an anti-tag Eu-labeled antibody also bound to B-Raf.
(§2) [formula] • where: • Xmax Average Uninhibited Controls • Xmin Average Background
(§3) A 4-parameter logistic model was the fit to the POC data for each compound.

[3] = tested on: LLC-PK1 or MDCKII cell monolayer; conditions: 2 h, 1 µM
Procedure: (§4) Both LLC-PK1 and MDR1 transfected LLC-PK1 cells were cultured and plated according to manufacturer's recommendations with the exception that the passage media contained only 2% fetal bovine serum to extend passage time out to seven days.
BCRP transfected MDCKII cells were cultured and plated according to manufacturer's recommendations. Assay conditions included with and without the BCRP-specific inhibitor, K0143, at a concentration of 0.3 μM to ascertain the contribution of BCRP to the efflux value of the test compound.
(§5) Both positive and negative controls were used to assess functionality of P-gp or BCRP efflux in the assays. […] Final organic concentration in the assay was 1%. All dosing solutions contained 10 μM lucifer yellow to monitor LLC-PK1 or MDCKII cell monolayer integrity.
(§6) For the apical to basolateral determination (A to B), 75 μL of the test article in transport buffer were added to the apical side of the individual transwells and 250 μL of basolateral media, without compound or lucifer yellow, were added to each well. For the basolateral to apical determination (B to A), 250 μL of test article in transport buffer were added to each well and 75 μL transport buffer, without compound or lucifer yellow, were added to each transwell. All tests were performed in triplicate, and each compound was tested for both apical to basolateral and basolateral to apical transport. The plates were incubated for 2 hours on a Lab-Line Instruments Titer Orbital Shaker (VWR, West Chester, Pa.) at 50 rpm and 37° C. with 5% CO2. All culture plates were removed from the incubator and 50 μL of media were removed from the apical and basolateral portion of each well and added to 150 μL of 1 μM labetalol in 2:1 acetonitrile (acetonitrile): H2O, v/v.
(§7) These values were accepted when found to be below 2% for apical to basolateral and 5% basolateral to apical flux across the MDR1-transfected LLC-PK1 or BCRP-transfected MDCKII cell monolayers. The plates were sealed and the contents of each well analyzed by LC-MS/MS. The compound concentrations were determined from the ratio of the peak areas of the compound to the internal standard (labetalol) in comparison to the dosing solution.
(§8) The LC-MS/MS system was comprised of an HTS-PAL autosampler (Leap Technologies, Carrboro, N.C.), an HP1200 HPLC (Agilent, Palo Alto, Calif.), and a MDS Sciex 4000 Q Trap system (Applied Biosystems, Foster City, Calif.). […] The total run time, including re-equilibration, for a single injection was 1.2 minutes. Mass spectrometric detection of the analytes was accomplished using the ion spray positive mode.
where Cd, V, t and C0 are the detected concentration (μM), the volume on the dosing side (mL); the incubation time (s) and the initial dosing concentration (μM), respectively. The calculations for Papp were made for each replicate and then averaged.

[4] = molecular target: P-gp (MDR1) (Homo sapiens (Human), UniProt P08183); conditions: pig, LLC-PK1, 2 h, 1 µM
Sequence of P-gp (MDR1) (P08183 whole entry, species assumed): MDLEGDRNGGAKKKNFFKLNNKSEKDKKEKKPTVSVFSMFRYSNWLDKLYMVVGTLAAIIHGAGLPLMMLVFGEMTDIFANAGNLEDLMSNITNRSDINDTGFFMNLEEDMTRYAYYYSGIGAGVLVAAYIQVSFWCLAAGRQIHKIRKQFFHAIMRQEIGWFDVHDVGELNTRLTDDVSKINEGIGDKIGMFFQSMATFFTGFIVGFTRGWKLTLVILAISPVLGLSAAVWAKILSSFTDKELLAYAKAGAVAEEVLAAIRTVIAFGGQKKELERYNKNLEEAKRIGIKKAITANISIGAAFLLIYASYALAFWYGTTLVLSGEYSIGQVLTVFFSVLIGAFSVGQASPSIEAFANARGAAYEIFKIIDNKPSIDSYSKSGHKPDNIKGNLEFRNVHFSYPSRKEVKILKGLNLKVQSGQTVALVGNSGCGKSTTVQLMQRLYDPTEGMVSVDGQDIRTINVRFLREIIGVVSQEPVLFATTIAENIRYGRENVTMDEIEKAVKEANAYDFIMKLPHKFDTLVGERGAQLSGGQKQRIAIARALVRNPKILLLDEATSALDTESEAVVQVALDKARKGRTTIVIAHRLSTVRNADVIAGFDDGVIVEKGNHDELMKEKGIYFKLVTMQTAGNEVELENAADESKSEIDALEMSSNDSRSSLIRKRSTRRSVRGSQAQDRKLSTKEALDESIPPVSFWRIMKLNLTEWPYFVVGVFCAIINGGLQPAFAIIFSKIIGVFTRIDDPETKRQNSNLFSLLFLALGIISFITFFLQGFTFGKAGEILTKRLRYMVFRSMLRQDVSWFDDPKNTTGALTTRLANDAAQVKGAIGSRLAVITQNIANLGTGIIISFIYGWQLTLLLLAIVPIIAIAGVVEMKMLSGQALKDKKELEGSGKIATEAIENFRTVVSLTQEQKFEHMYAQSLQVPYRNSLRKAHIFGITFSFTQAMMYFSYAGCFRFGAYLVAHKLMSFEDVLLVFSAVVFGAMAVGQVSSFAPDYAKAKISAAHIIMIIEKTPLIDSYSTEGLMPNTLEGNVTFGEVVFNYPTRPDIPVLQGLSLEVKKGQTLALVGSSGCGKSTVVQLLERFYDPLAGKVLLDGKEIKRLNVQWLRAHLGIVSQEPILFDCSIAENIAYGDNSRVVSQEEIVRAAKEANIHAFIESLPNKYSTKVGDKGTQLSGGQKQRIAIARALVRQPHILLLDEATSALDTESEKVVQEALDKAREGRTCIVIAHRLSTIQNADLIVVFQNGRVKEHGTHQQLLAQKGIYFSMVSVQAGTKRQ
Procedure: as §4, §5, §6, §7, §8
An efflux ratio is calculated from the mean apical to basolateral (A−B) Papp data and basolateral to apical (B−A) Papp data: Efflux ratio=Papp(B−A)/Papp(A−B)

[5] = molecular target: BCRP (Homo sapiens (Human), UniProt Q9UNQ0); conditions: dog, 2 h, 1 µM
Sequence of BCRP (Homo sapiens (Human), UniProt Q9UNQ0) (Q9UNQ0 whole entry, species assumed): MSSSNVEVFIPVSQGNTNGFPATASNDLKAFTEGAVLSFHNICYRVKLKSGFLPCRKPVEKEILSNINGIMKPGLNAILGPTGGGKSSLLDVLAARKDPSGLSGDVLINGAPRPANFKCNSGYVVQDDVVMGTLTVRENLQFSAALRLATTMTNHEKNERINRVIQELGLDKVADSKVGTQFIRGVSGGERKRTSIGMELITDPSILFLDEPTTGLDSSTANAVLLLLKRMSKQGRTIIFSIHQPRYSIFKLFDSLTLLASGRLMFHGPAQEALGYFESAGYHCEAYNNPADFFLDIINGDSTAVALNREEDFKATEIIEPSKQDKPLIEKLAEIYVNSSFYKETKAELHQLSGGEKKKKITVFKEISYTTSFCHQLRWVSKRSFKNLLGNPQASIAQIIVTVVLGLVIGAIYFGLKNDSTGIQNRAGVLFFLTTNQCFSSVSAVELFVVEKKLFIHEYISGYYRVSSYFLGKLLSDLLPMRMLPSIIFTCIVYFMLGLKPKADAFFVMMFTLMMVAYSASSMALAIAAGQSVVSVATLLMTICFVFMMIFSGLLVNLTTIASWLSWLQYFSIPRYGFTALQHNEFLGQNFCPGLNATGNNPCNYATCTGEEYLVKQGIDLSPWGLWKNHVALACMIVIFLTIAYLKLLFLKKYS

[6] = molecular target: N-terminally GST-tagged B-Raf(V600K) (Homo sapiens, UniProt P15056, V600K); assay: BRAF V600K enzyme assay (TR-FRET competitive displacement of fluorescent tracer); assay type: binding; conditions: averaged IC50; 60 min at ambient temperature; 11-point dosing, top dose 10 μM
Sequence of N-terminally GST-tagged B-Raf(V600K) (P15056 2-766 V600K limits assumed): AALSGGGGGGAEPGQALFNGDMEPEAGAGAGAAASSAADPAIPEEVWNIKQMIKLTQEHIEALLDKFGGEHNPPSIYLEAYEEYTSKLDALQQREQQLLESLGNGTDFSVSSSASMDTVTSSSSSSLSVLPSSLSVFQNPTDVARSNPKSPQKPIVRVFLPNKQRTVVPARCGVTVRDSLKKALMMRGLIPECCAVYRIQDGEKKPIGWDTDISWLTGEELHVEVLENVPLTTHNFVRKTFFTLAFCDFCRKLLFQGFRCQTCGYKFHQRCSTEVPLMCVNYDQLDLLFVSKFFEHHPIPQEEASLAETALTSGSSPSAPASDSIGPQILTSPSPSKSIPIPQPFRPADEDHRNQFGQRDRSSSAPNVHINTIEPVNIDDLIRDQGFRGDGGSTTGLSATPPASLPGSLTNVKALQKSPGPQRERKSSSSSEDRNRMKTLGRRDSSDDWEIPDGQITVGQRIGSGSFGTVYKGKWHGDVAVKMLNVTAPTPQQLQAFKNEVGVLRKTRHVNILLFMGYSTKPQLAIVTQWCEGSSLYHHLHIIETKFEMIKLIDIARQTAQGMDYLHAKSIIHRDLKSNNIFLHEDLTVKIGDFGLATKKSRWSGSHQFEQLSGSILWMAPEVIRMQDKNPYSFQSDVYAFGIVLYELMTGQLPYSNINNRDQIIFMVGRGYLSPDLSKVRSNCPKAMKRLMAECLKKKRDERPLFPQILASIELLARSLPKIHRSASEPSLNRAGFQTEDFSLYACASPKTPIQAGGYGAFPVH
From the text: as §1, §2, §3

[7] = PK (free brain-to-free plasma ratio) (mouse); assay type: in vivo; conditions: unbound brain-to-unbound plasma concentration ratio; male CD-1 mice; oral gavage 10 mg/kg; sampling 2-24 hours
Procedure: PK (Free Brain-to-Free Plasma Ratio) (Mouse)
The ability of representative compounds to penetrate the BBB in mice was determined by evaluating the unbound brain-to-unbound plasma (also referred to as free brain-to-free plasma) concentration ratio in male CD-1 mice.
Brain samples were stored at −20±5° C. prior to analysis. Concentrations of test compound in mouse brain homogenate were determined by liquid chromatography tandem mass spectrometry (LC-MS/MS) following protein precipitation with acetonitrile. A 12-point calibration curve, ranging from 0.5 to 10,000 ng/mL, was prepared in duplicate. A solution of 400 μg/mL of test compound in dimethyl sulfoxide (DMSO) was serially diluted (3-fold) in 100% DMSO, and then 2.5 μL of each standard solution was added to 100 μL of naïve male CD-1 mice brain homogenate. To mimic the extraction in the standard curve, 2.5 μL of DMSO was added to all test samples. Both calibration and test brain homogenate samples were spiked with 10 μL of an IS (1 μg/mL of a structural analog). Brain homogenate was generated by adding 0.75 mL of 4:1 water:MeOH to each brain sample followed by homogenization for 1 minute with bead beater tubes a 6 m/s using an MP Fast Prep-24®. Proteins were precipitated from 100 μL of brain homogenate sample by the addition of 300 μL of acetonitrile. […] A 100 μL aliquot of each supernatant was transferred via a 550 μL Personal Pipettor (Apricot Designs, Monrovia, Calif.) to 96-well plates and diluted 1:1 with HPLC grade water. The resulting plates were sealed with aluminum for LC-MS/MS analysis.
Brain-to-plasma ratios were calculated using the concentration of compound measured in the brain divided by the concentration of compound measured in the plasma. Brain-to-plasma ratios were always generated from a single animal and time point. Free brain-to-free plasma ratios were calculated by multiplying the brain-to-plasma ratio by the in vitro brain homogenate free fraction divided by the in vitro plasma free fraction using the following equation: (B/P)*(Bfu/Pfu).

Sequence of full-length FLAG-tagged B-Raf(V600E) (P15056 whole entry V600E): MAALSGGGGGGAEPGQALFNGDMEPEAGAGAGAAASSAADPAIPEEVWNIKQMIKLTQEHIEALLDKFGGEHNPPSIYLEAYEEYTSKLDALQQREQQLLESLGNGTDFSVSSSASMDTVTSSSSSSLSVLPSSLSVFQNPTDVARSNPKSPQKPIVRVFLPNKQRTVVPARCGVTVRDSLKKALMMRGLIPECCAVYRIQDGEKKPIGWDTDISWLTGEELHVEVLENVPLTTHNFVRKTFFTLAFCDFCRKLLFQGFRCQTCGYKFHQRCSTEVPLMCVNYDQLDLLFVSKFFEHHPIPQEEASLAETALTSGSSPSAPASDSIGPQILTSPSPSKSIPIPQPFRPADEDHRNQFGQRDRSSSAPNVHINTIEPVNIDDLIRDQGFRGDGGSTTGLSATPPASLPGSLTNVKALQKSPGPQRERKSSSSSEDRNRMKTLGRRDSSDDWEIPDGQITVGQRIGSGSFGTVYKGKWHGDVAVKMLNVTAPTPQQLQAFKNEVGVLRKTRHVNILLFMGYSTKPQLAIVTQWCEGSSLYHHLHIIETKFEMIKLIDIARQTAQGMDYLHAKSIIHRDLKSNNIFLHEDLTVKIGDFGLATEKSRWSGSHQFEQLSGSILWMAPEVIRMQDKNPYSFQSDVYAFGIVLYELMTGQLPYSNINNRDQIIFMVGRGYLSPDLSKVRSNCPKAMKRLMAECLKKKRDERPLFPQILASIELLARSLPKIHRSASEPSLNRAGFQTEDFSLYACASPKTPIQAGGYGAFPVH

## CC(C)(C)c1nc(-c2cccc(NS(=O)(=O)c3c(F)cccc3F)c2F)c(-c2ccnc(N)n2)s1 [dabrafenib]
[1]
  BCRP efflux ratio: 21.0

## CCCS(=O)(=O)Nc1ccc(F)c(C(=O)c2c[nH]c3ncc(-c4ccc(Cl)cc4)cc23)c1F [vemurafenib]
[1]
  BCRP efflux ratio: 495

## N-(3-((3,5-dimethyl-4-oxo-3,4-dihydroquinazolin-6-yl)amino)-2-fluoro-5-methylphenyl)propane-1-sulfonamide [Example 46]
[2]
  IC50: 148 nM
[3]
  Permeability: 30.74 *10^−6 cm/s
[4]
  MDR1 efflux ratio: 1.43
[5]
  BCRP efflux ratio: 1.48

## N-(3-chloro-4-((3,5-dimethyl-4-oxo-3,4-dihydroquinazolin-6-yl)oxy)-5-fluoropyridin-2-yl)propane-1-sulfonamide [Example 63]
[2]
  IC50: 2.8 nM
[6]
  IC50: 2.4 nM
[7]
  B/P ratio (free): 0.34-0.4
[3]
  Permeability: 26.09 *10^−6 cm/s
[4]
  MDR1 efflux ratio: 1.3
[5]
  BCRP efflux ratio: 7.7

— patent US11414404B2, “Compounds for the treatment of BRAF-associated diseases and disorders” (Array BioPharma Inc., priority 2019, dated 2022)
